Assay results as given in patent US20090130229A1, “Antitumor uses of compound” (Cell Therapeutics, Inc., priority 2002, published 2009).
Entries after “also recorded” stand apart in the source; their conditions may differ.

What was measured:
Met = target: T1, Met (Homo sapiens, UniProt P08581); test: Met autophosphorylation and expression in TPC-1 cells (IP/Western blotting); assay type: cell-based
T1 construct: endogenous in cells; host or cells: TPC-1 (human papillary thyroid carcinoma)
Description: FIG. 4. Inhibition of Met autophosphorylation and expression in human papillary thyroid carcinoma cells (TPC-1) treated with Cpd1. A): TPC-1 cells were exposed to solvent (−) or the indicated concentrations of Cpd 1 for 72 h. Equal amounts of protein were used for immunoprecipitation (IP) with anti-Met antibody or for the preparation of whole cell lysates (WCL). Immunoprecipitated proteins and WCLs were separated by SDS-PAGE, transferred to nitrocellulose membranes, and subjected to Western blotting with anti-pTyr or anti-Met antibodies. B): Cells were treated as in A. Cell extracts were immunoprecipitated with anti-pTyr antibody and probed with anti-Met antibody. C): Cells were serum-starved for 24 h and exposed to solvent or Cpd1 (60 μM) during the last 18 h. Then they were left untreated (−) or stimulated with 20 ng/ml HGF (+), for 10 min. Cell lysates were immunoprecipitated with anti-Met and probed with anti-pTyr or anti-Met antibody. Drug treatment abolished the constitutive or HGF-induced Met tyrosine phosphorylation and induced a reduction of Met expression.
The following human medullary thyroid carcinoma (MTC) cell lines were used in this study. The TT cell line derived from a MEN2A-associated MTC characterized by expression of the RET oncogene carrying the mutation C634W. The MZ-CRC-1 cell line derived from MEN2B-associated MTC characterized by expression of the RET oncogene carrying the mutation M918T. TT cells were cultivated in Ham's F12 medium (BioWhittaker, Verviers, Belgium) supplemented with 15% fetal calf serum (FCS) (Life Technologies, Inc., Gaithersburg, Md.) whereas MZ-CRC-1 cells were grown in Dulbecco's modified Eagle's medium (DMEM) (BioWhittaker) supplemented with 10% FCS. The human papillary thyroid carcinoma cell line TPC-1 which was used as a model of Met overexpression, was routinely cultivated in DMEM with 10% FCS. […]
(§1) For immunoprecipitation experiments, cells were treated with Cpd1 or solvent for the indicated times. […] Protein concentration was determined by the BCA reagent (Pierce). […]

FGF-R3 mutant Y373C = target: T2, FGF-R3 mutant Y373C (Homo sapiens, UniProt P22607, Y373C); test: FGF-R3 (Y373C) autophosphorylation and expression in NIH3T3 transfectants; assay type: cell-based; details: 72 h
T2 construct: expressed in transfected cells; host or cells: NIH3T3 (mouse fibroblasts)
Description: FIG. 6. Inhibition of autophosphorylation and expression of FGF-R1 and FGF-R3 receptors in whole cells by Cpd1. A): Swiss3T3 cells were serum starved for 24 h and then treated with Cpd1 at the indicated concentrations, for 18 h. After stimulation with 100 ng/ml FGF for 5 min, whole cell lysates were prepared and subjected to Western blotting with anti-pTyr or anti-FGF-R1. Protein loading by anti-actin blot is shown. B): NIH3T3 transformed by the FGF-R3 mutant Y373C were treated with the indicated concentrations, for 72 h. Cell extracts were immunoprecipitated with anti-FGF-R3 and then subjected to Western blotting with anti p-Tyr or anti-FGF-R3.
The following human medullary thyroid carcinoma (MTC) cell lines were used in this study. The TT cell line derived from a MEN2A-associated MTC characterized by expression of the RET oncogene carrying the mutation C634W. The MZ-CRC-1 cell line derived from MEN2B-associated MTC characterized by expression of the RET oncogene carrying the mutation M918T. […]
as §1

T1 sequence (P08581 25-1390): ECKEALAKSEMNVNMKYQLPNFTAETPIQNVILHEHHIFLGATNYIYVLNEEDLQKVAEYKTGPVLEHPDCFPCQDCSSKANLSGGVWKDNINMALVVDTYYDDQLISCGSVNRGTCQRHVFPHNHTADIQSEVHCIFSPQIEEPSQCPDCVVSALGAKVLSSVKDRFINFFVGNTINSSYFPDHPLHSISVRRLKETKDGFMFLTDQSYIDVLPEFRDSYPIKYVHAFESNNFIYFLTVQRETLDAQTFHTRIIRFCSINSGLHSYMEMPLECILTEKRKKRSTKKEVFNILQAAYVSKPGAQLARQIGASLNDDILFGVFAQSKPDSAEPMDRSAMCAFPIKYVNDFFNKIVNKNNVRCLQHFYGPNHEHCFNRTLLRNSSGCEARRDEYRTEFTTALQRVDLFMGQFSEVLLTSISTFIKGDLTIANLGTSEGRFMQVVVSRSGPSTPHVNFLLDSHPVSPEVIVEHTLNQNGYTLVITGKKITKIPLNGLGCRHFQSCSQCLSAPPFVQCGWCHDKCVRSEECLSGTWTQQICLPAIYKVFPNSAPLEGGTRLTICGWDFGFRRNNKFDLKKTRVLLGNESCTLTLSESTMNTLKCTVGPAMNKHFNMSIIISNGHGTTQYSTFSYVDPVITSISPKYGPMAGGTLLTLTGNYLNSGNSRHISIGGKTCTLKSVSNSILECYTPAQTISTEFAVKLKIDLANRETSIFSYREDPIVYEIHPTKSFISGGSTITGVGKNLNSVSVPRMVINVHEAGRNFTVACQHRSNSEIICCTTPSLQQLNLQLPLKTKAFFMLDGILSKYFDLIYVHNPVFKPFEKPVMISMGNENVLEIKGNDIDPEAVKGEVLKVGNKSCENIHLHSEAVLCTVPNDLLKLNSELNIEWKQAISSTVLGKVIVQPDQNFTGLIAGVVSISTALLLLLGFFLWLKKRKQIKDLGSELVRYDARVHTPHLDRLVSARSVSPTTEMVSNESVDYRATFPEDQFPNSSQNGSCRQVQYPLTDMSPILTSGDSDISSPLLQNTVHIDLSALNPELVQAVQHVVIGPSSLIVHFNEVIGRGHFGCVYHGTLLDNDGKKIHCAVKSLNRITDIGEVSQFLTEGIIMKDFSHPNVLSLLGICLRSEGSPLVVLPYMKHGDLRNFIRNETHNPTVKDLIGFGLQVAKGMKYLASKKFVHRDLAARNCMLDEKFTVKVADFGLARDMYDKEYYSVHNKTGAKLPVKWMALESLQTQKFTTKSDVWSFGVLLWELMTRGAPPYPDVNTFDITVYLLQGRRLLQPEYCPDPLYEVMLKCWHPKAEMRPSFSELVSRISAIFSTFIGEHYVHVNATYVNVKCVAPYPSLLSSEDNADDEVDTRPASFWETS
T2 sequence (P22607 23-806 Y373C): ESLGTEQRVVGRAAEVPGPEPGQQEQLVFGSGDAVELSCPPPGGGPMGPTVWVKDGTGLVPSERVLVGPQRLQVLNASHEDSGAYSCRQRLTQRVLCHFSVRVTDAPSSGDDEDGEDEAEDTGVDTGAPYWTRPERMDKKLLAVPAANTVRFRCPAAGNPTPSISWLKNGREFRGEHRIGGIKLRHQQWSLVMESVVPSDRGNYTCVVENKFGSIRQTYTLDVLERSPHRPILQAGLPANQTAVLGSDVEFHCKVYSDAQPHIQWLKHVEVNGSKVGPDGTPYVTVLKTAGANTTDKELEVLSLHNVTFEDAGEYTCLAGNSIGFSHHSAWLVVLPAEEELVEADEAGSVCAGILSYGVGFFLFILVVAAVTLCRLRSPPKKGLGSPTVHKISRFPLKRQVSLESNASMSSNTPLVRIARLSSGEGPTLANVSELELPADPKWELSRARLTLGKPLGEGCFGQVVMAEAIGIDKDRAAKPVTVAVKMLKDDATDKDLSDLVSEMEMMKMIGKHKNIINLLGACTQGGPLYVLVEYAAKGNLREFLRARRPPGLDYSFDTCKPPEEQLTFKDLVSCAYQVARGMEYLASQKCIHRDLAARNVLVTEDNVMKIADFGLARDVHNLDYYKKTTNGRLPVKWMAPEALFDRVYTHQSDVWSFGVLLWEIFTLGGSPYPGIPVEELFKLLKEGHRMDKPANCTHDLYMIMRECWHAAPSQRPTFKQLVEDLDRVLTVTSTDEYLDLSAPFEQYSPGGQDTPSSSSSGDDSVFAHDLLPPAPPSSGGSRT

In the case of `COc1cc2c(cc1OC)/C(=C\c1ccc(O)cc1)C(=O)N2` [Cpd 1, (E)-1,3-dihydro-5,6-dimethoxy-3-[(4-hydroxyphenyl)methylene]-2H-indol-2-one], the Met expression (Met; TPC-1 cells) is reported as “reduction”, the “HGF-induced Met tyrosine phosphorylation” value (Met; TPC-1 cells serum-starved, 60 μM for 18 h, 20 ng/ml HGF 10 min) is reported as “abolished” and the “Constitutive Met tyrosine phosphorylation (autophosphorylation)” value (Met; TPC-1 cells, 72 h) is reported as “dose-dependent inhibition; also recorded: abolished”. For the same compound, the “FGF-R3 (Y373C) expression” value (FGF-R3 mutant Y373C) was “dose-dependent inhibition” and the “FGF-R3 (Y373C) tyrosine phosphorylation” value (FGF-R3 mutant Y373C) was “dose-dependent inhibition”.
